Laboratory results reported in patent US20080261978A1, “Chemokine receptor modulators” (priority 2007, published 2008).

How the values were obtained:
[1] = cited from earlier work
T-tropic HIV = test: Phenoscreen HIV cellular entry inhibition assay (Monogram Biosciences); details: Human immunodeficiency virus 1, read-out: IC50 value for viral entry inhibition

Structure (SMILES)	side effect in clinical study [1]	IC50 (T-tropic HIV) [µM]
c1cc(CN2CCCNCCNCCCNCC2)ccc1CN1CCCNCCNCCCNCC1 [AMD3100]	cardiac-related side effect	
O=S(=O)(NC1CCCc2ccccc21)c1ccc(CNCc2ccccn2)cc1 (centres unmarked) [DE, 4-((pyridin-2-ylmethylamino)methyl)-N-(1,2,3,4-tetrahydronaphthalen-1-yl)benzenesulfonamide]		≤ 10
O=S(=O)(c1ccc(CNCc2ccccn2)cc1)N(Cc1ccccc1)Cc1nc2ccccc2[nH]1 [DH, N-((1H-benzo[d]imidazol-2-yl)methyl)-N-benzyl-4-((pyridin-2-ylmethylamino)methyl)benzenesulfonamide]		≤ 10
O=S(=O)(c1ccc(CNCCCN2CCOCC2)cc1)N(Cc1ccccc1)Cc1ccccc1 [DX, N,N-dibenzyl-4-((3-morpholinopropylamino)methyl)benzenesulfonamide]		≤ 10
CCNCc1ccc(S(=O)(=O)N(Cc2ccccc2)Cc2ccccc2)cc1 [DZ, N,N-dibenzyl-4-((ethylamino)methyl)benzenesulfonamide]		≤ 10
